In patent US9334279B2, “Hepatitis C virus inhibitors” (BRISTOL-MYERS SQUIBB COMPANY, priority 2012, dated 2016):

Experiments:
HCV GT1a(H77) replicon = test: HCV replicon luciferase reporter assay, genotype 1a; assay type: cell-based, HCV genotype 1a; conditions: Hepatitis C virus, 72 h, HUH-7 cells, Renilla luciferase, 3 days incubation, read-out: LE_1a (EC50, range)
Procedure, shortened: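 Huh-7 cells stably carried a GT1a(H77) Renilla luciferase replicon with NS3 P1496L and NS5A S2204I adaptive mutations. Luminescence was read after 2 h with 7.5 μM EnduRen, and EC50 came from a four-parameter logistic fit; CC50 came from multiplexed Cell Titer-Blue (8 h).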

HCV GT1b(Con1) replicon = test: HCV replicon luciferase reporter assay, genotype 1b; assay type: cell-based, HCV genotype 1b; conditions: Hepatitis C virus, 72 h, HUH-7 cells, Renilla luciferase, 3 days incubation, read-out: LE_1b (EC50, range)
Procedure, shortened: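 HUH-7 cells stably carrying a Con1 GT1b replicon with Renilla luciferase and Ser1179Ile adaptive mutation; 3.0×10^3 cells/well, DMEM 4% FCS, 0.5% DMSO, twenty-point 3-fold titration, 3 days 37 °C. Luminescence 2 h after 7.5 μM EnduRen; EC50 by four-parameter logistic fit. CC50 from multiplexed Cell Titer-Blue fluorescence (8 h).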

SMILES	EC50 (HCV GT1a(H77) replicon)	EC50 (HCV GT1b(Con1) replicon)
CC(C)Oc1ccc(-c2cc(Cl)cc(O[C@@H]3C[C@H]4C(=O)N[C@]5(C(=O)NS(=O)(=O)C6(C)CC6)C[C@H]5/C=C\CC[C@H](C)C[C@@H](C)[C@H](NC(=O)OC(C)(C)C)C(=O)N4C3)n2)cc1 [Compound 1030, tert-butyl ((2R,6S,7R,9S,13aS,14aR,16aS,Z)-2-((4-chloro-6-(4-isopropoxyphenyl)pyridin-2-yl)oxy)-7,9-dimethyl-14a-(((1-methylcyclopropyl)sulfonyl)carbamoyl)-5,16-dioxo-1,2,3,5,6,7,8,9,10,11,13a,14,14a,15,16,16a-hexadecahydrocyclopropa[e]pyrrolo[1,2-a][1,4]diazacyclopentadecin-6-yl)carbamate]	35 to 359 nM	35 to 359 nM
CC(C)Oc1ccc(-c2cc(O[C@@H]3C[C@H]4C(=O)N[C@]5(C(=O)NS(=O)(=O)C6(C)CC6)C[C@H]5/C=C\CC[C@@H](C)C[C@@H](C)[C@H](NC(=O)OC(C)(C)C(F)(F)F)C(=O)N4C3)cc(-n3cccn3)n2)cc1 [Compound 1013, 1,1,1-trifluoro-2-methylpropan-2-yl ((2R,6S,7R,9R,13aS,14aR,16aS,Z)-2-((2-(4-isopropoxyphenyl)-6-(1H-pyrazol-1-yl)pyridin-4-yl)oxy)-7,9-dimethyl-14a-(((1-methylcyclopropyl)sulfonyl)carbamoyl)-5,16-dioxo-1,2,3,5,6,7,8,9,10,11,13a,14,14a,15,16,16a-hexadecahydrocyclopropa[e]pyrrolo[1,2-a][1,4]diazacyclopentadecin-6-yl)carbamate]	1.01 to 5 nM	1.01 to 5 nM
CC[C@@H]1O[C@H](C)CC/C=C\[C@@H]2C[C@@]2(C(=O)NS(=O)(=O)C2(C)CC2)NC(=O)[C@@H]2C[C@@H](Oc3cc(-c4ccc(OC(C)C)cc4)nc(-c4cncs4)c3)CN2C(=O)[C@H]1NC(=O)OC1(C(F)(F)F)CCCOC1 (stereo partly drawn) [Compound 1034, 3-(trifluoromethyl)tetrahydro-2H-pyran-3-yl ((2R,6S,7S,9R,13aS,14aR,16aS,Z)-7-ethyl-2-((2-(4-isopropoxyphenyl)-6-(thiazol-5-yl)pyridin-4-yl)oxy)-9-methyl-14a-(((1-methylcyclopropyl)sulfonyl)carbamoyl)-5,16-dioxo-2,3,5,6,7,9,10,11,13a,14,14a,15,16,16a-tetradecahydro-1H-cyclopropa[i]pyrrolo[1,2-e][1,5,8]oxadiazacyclopentadecin-6-yl)carbamate]	1.01 to 5 nM	0.51 to 1 nM
CC(C)Oc1ccc(-c2cc(O[C@@H]3C[C@H]4C(=O)N[C@]5(C(=O)NS(=O)(=O)C6(C)CC6)C[C@H]5/C=C\CC[C@H](C)C[C@@H](C)[C@H](NC(=O)OC(C)(C)C(F)(F)F)C(=O)N4C3)cc(-c3ccccn3)n2)cc1 [Compound 1022, 1,1,1-trifluoro-2-methylpropan-2-yl ((2R,6S,7R,9S,13aS,14aR,16aS,Z)-2-((6-(4-isopropoxyphenyl)-[2,2′-bipyridin]-4-yl)oxy)-7,9-dimethyl-14a-(((1-methylcyclopropyl)sulfonyl)carbamoyl)-5,16-dioxo-1,2,3,5,6,7,8,9,10,11,13a,14,14a,15,16,16a-hexadecahydrocyclopropa[e]pyrrolo[1,2-a][1,4]diazacyclopentadecin-6-yl)carbamate]	5.01 to 35 nM	1.01 to 5 nM
CC(C)Oc1ccc(-c2cc(O[C@@H]3C[C@H]4C(=O)N[C@]5(C(=O)NS(=O)(=O)C6(C)CC6)C[C@H]5/C=C\CC[C@@H](C)C[C@@H](C)[C@H](NC(=O)OC(C)(C)C(F)(F)F)C(=O)N4C3)cc(-c3ncccn3)n2)cc1 [Compound 1019, 1,1,1-trifluoro-2-methylpropan-2-yl ((2R,6S,7R,9R,13aS,14aR,16aS,Z)-2-((2-(4-isopropoxyphenyl)-6-(pyrimidin-2-yl)pyridin-4-yl)oxy)-7,9-dimethyl-14a-(((1-methylcyclopropyl)sulfonyl)carbamoyl)-5,16-dioxo-1,2,3,5,6,7,8,9,10,11,13a,14,14a,15,16,16a-hexadecahydrocyclopropa[e]pyrrolo[1,2-a][1,4]diazacyclopentadecin-6-yl)carbamate]	1.01 to 5 nM	1.01 to 5 nM
C[C@@H]1CC/C=C\[C@@H]2C[C@@]2(C(=O)NS(=O)(=O)C2(C)CC2)NC(=O)[C@@H]2C[C@@H](Oc3cc(-c4nccs4)ccn3)CN2C(=O)[C@@H](NC(=O)OC(C)(C)C(F)(F)F)[C@H](C)C1 [Compound 1031, 1,1,1-trifluoro-2-methylpropan-2-yl ((2R,6S,7R,9R,13aS,14aR,16aS,Z)-7,9-dimethyl-14a-(((1-methylcyclopropyl)sulfonyl)carbamoyl)-5,16-dioxo-2-((4-(thiazol-2-yl)pyridin-2-yl)oxy)-1,2,3,5,6,7,8,9,10,11,13a,14,14a,15,16,16a-hexadecahydrocyclopropa[e]pyrrolo[1,2-a][1,4]diazacyclopentadecin-6-yl)carbamate]	1.01 to 5 nM	0.51 to 1 nM
C[C@@H]1CC/C=C\[C@@H]2C[C@@]2(C(=O)NS(=O)(=O)C2(C)CC2)NC(=O)[C@@H]2C[C@@H](Oc3cc(-c4cccnc4)nc(-c4nccs4)c3)CN2C(=O)[C@@H](NC(=O)OC2(C(F)(F)F)CCCOC2)[C@H](C)C1 (stereo partly drawn) [Compound 1049, 3-(trifluoromethyl)tetrahydro-2H-pyran-3-yl ((2R,6S,7R,9R,13aS,14aR,16aS,Z)-7,9-dimethyl-14a-(((1-methylcyclopropyl)sulfonyl)carbamoyl)-5,16-dioxo-2-((6-(thiazol-2-yl)-[2,3′-bipyridin]-4-yl)oxy)-1,2,3,5,6,7,8,9,10,11,13a,14,14a,15,16,16a-hexadecahydrocyclopropa[e]pyrrolo[1,2-a][1,4]diazacyclopentadecin-6-yl)carbamate]	5.01 to 35 nM	1.01 to 5 nM
CC(C)Oc1ccc(-c2cc(O[C@@H]3C[C@H]4C(=O)N[C@]5(C(=O)NS(=O)(=O)C6(C)CC6)C[C@H]5/C=C\CC[C@@H](C)C[C@@H](C)[C@H](NC(=O)OC5(C(F)(F)F)CCCOC5)C(=O)N4C3)cc(-c3ccccn3)n2)cc1 (stereo partly drawn) [Compound 1051, 3-(trifluoromethyl)tetrahydro-2H-pyran-3-yl ((2R,6S,7R,9R,13aS,14aR,16aS,Z)-2-((6-(4-isopropoxyphenyl)-[2,2′-bipyridin]-4-yl)oxy)-7,9-dimethyl-14a-(((1-methylcyclopropyl)sulfonyl)carbamoyl)-5,16-dioxo-1,2,3,5,6,7,8,9,10,11,13a,14,14a,15,16,16a-hexadecahydrocyclopropa[e]pyrrolo[1,2-a][1,4]diazacyclopentadecin-6-yl)carbamate]	1.01 to 5 nM	0.1 to 0.5 nM
CC(C)Oc1ccc(-c2cc(Cl)cc(O[C@@H]3C[C@H]4C(=O)N[C@]5(C(=O)NS(=O)(=O)C6(C)CC6)C[C@H]5/C=C\CC[C@H](C)C[C@@H](C)[C@H](NC(=O)OC(C)(C)C(F)(F)F)C(=O)N4C3)n2)cc1 [Compound 1028, 1,1,1-trifluoro-2-methylpropan-2-yl ((2R,6S,7R,9S,13aS,14aR,16aS,Z)-2-((4-chloro-6-(4-isopropoxyphenyl)pyridin-2-yl)oxy)-7,9-dimethyl-14a-(((1-methylcyclopropyl)sulfonyl)carbamoyl)-5,16-dioxo-1,2,3,5,6,7,8,9,10,11,13a,14,14a,15,16,16a-hexadecahydrocyclopropa[e]pyrrolo[1,2-a][1,4]diazacyclopentadecin-6-yl)carbamate]	35 to 359 nM	35 to 359 nM
